Assay results taken from the NIST ThermoML archive (doi:10.1021/je400459y).

Assay: mn = molality of the nth substance listed, in mol/kg
Conditions: Liquid

[Cl-].[Na+] [sodium chloride] + O
Conditions | mass density [kg/m3]
332.77 K, 16012 kPa, m1 = 1 | 1028.34
332.83 K, 10001 kPa, m1 = 1 | 1025.96
332.88 K, 12003 kPa, m1 = 1 | 1026.78
332.96 K, 18010 kPa, m1 = 1 | 1029.12
333.11 K, 14007 kPa, m1 = 1 | 1027.52
333.13 K, 10014 kPa, m1 = 2 | 1060.45
333.13 K, 12007 kPa, m1 = 3 | 1090.92
333.13 K, 14002 kPa, m1 = 3 | 1091.64
333.16 K, 18002 kPa, m1 = 3 | 1093.07
333.17 K, 15999 kPa, m1 = 2 | 1062.63
333.18 K, 18011 kPa, m1 = 2 | 1063.39
333.19 K, 10002 kPa, m1 = 3 | 1089.97
333.19 K, 12008 kPa, m1 = 2 | 1061.17
333.2 K, 14003 kPa, m1 = 2 | 1061.9
333.21 K, 16006 kPa, m1 = 3 | 1092.36
333.52 K, 15999 kPa, m1 = 4 | 1123.12
333.54 K, 12004 kPa, m1 = 4 | 1121.22
333.55 K, 18008 kPa, m1 = 4 | 1124.3
333.56 K, 14008 kPa, m1 = 4 | 1122.36
333.59 K, 10007 kPa, m1 = 4 | 1120.38
352.11 K, 10000 kPa, m1 = 4 | 1109.5
352.14 K, 18001 kPa, m1 = 4 | 1112.67
352.16 K, 12008 kPa, m1 = 4 | 1109.8
352.17 K, 14050 kPa, m1 = 4 | 1111.1
352.19 K, 16005 kPa, m1 = 4 | 1111.53
352.65 K, 12002 kPa, m1 = 1 | 1015.47
353.13 K, 18026 kPa, m1 = 2 | 1052.55
353.14 K, 12005 kPa, m1 = 2 | 1050.19
353.16 K, 14002 kPa, m1 = 3 | 1079.82
353.16 K, 14003 kPa, m1 = 2 | 1050.95
353.19 K, 16007 kPa, m1 = 2 | 1051.71
353.2 K, 9995 kPa, m1 = 1 | 1014.63
353.2 K, 13999 kPa, m1 = 1 | 1016.06
353.23 K, 9996 kPa, m1 = 2 | 1049.38
353.23 K, 10007 kPa, m1 = 3 | 1078.28
353.23 K, 16008 kPa, m1 = 3 | 1080.53
353.27 K, 12003 kPa, m1 = 3 | 1079.02
353.28 K, 17998 kPa, m1 = 1 | 1017.65
353.28 K, 18002 kPa, m1 = 3 | 1081.24
372.7 K, 18017 kPa, m1 = 4 | 1100.7
372.71 K, 14005 kPa, m1 = 4 | 1099
372.72 K, 10019 kPa, m1 = 4 | 1097.2
372.75 K, 16043 kPa, m1 = 4 | 1100.12
372.76 K, 12007 kPa, m1 = 4 | 1098.5
372.96 K, 16007 kPa, m1 = 1 | 1003.93
373 K, 18001 kPa, m1 = 1 | 1004.74
373.03 K, 12005 kPa, m1 = 1 | 1002.25
373.03 K, 14001 kPa, m1 = 1 | 1003.21
373.1 K, 11999 kPa, m1 = 2 | 1038.08
373.11 K, 10005 kPa, m1 = 3 | 1066.26
373.11 K, 17997 kPa, m1 = 3 | 1069.36
373.16 K, 10001 kPa, m1 = 1 | 1001.31
373.16 K, 14004 kPa, m1 = 3 | 1067.77
373.17 K, 12008 kPa, m1 = 3 | 1067.01
373.2 K, 14002 kPa, m1 = 2 | 1038.84
373.22 K, 16005 kPa, m1 = 3 | 1068.52
392.6 K, 10002 kPa, m1 = 1 | 986.9
392.65 K, 12008 kPa, m1 = 1 | 987.5
392.65 K, 14005 kPa, m1 = 1 | 988.82
392.65 K, 16001 kPa, m1 = 1 | 989.54
392.65 K, 18001 kPa, m1 = 1 | 990.45
392.77 K, 14002 kPa, m1 = 4 | 1088.52
392.78 K, 15999 kPa, m1 = 4 | 1089.3
392.79 K, 10006 kPa, m1 = 4 | 1086.96
392.81 K, 12002 kPa, m1 = 4 | 1087.71
392.82 K, 18008 kPa, m1 = 4 | 1090.43
393.09 K, 14006 kPa, m1 = 3 | 1054.75
393.17 K, 10001 kPa, m1 = 3 | 1053.22
393.17 K, 16002 kPa, m1 = 3 | 1055.54
393.17 K, 18005 kPa, m1 = 2 | 1027.22
393.18 K, 10003 kPa, m1 = 2 | 1023.83
393.2 K, 11995 kPa, m1 = 2 | 1024.64
393.22 K, 13999 kPa, m1 = 2 | 1025.54
393.23 K, 16003 kPa, m1 = 2 | 1026.34
393.24 K, 12008 kPa, m1 = 3 | 1053.85
393.26 K, 17997 kPa, m1 = 3 | 1056.25
412.86 K, 10007 kPa, m1 = 4 | 1072.35
412.92 K, 12005 kPa, m1 = 4 | 1073.15
412.94 K, 14004 kPa, m1 = 4 | 1073.97
413.01 K, 16003 kPa, m1 = 4 | 1074.76
413.06 K, 18002 kPa, m1 = 4 | 1075.53
413.11 K, 17998 kPa, m1 = 2 | 1012.96
413.12 K, 14007 kPa, m1 = 2 | 1011.33
413.12 K, 16004 kPa, m1 = 1 | 973.21
413.14 K, 10008 kPa, m1 = 2 | 1009.53
413.14 K, 16003 kPa, m1 = 2 | 1012.21
413.14 K, 18004 kPa, m1 = 3 | 1041.53
413.15 K, 18001 kPa, m1 = 1 | 974.15
413.16 K, 10006 kPa, m1 = 1 | 970.45
413.17 K, 12009 kPa, m1 = 1 | 971.23
413.17 K, 16001 kPa, m1 = 3 | 1040.63
413.18 K, 12003 kPa, m1 = 2 | 1010.61
413.18 K, 13998 kPa, m1 = 1 | 972.24
413.2 K, 12005 kPa, m1 = 3 | 1038.72
413.23 K, 10007 kPa, m1 = 3 | 1038.23
